From paper PMC11943725, “Construction of a Plasmid-Free Escherichia coli Strain with Enhanced Heme Supply to Produce Active Hemoglobins” (Metabolites, 2025)

Target: T1, human hemoglobin (hHb) (Homo sapiens, UniProt P68871+P69905)
T1 construct: gene HBA1; tetramer
Test: peroxidase activity of purified protein with TMB Chromogen Solution, OD370
Format: biochemical
Conditions: chromogenic peroxidase substrate; holo fraction incomplete

T1 sequence (P69905 2-142): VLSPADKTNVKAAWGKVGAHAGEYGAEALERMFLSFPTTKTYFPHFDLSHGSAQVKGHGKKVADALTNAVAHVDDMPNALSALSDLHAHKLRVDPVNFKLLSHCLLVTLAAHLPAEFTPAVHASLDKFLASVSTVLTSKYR
T1 sequence (P68871 2-147): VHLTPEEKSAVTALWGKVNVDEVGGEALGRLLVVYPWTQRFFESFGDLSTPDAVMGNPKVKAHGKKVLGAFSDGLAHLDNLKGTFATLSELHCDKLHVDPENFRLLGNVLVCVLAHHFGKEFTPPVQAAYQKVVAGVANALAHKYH

## Cc1cc(-c2cc(C)c(N)c(C)c2)cc(C)c1N [TMB]
  peroxidase activity of purified protein with TMB Chromogen Solution, OD370: The peroxidase activities of purified proteins were detected using TMB Chromogen Solution
